Measured values taken from patent US10532106B2 (priority 2014, dated 2020).
Numbered stars: 1 amine (or outer) side, 2 acyl side, 3 side chain; on linkers, the order of the positions; unused ones are H or OH. Bridge positions count the residues as written; N and C are the ends. Square brackets hold non-standard residues; d marks the D form. Peptide text beside a SMILES is read from it. * marks the point of attachment. 5FAM = O=C1OC2(c3ccc(O)cc3Oc3cc(O)ccc32)c2ccc(C(=O)*)cc21; Phe(4-Br) = N[C@@H](Cc1ccc(Br)cc1)C(=O)O; 1Nal = N[C@@H](Cc1cccc2ccccc12)C(=O)O; TBMB = c1c(C[*:1])cc(C[*:3])cc1C[*:2]; Tle = CC(C)(C)[C@H](N)C(=O)O; βAla = NCCC(=O)O; Sar = CNCC(=O)O

How the values were obtained:
[1] = Mouse pharmacokinetics, intravenous; format: in vivo; settings: plasma, male CD1 mice, single intravenous 5.925 mg/kg
Description: Mouse pharmacokinetics were acquired using bicyclic peptide 17-69-04-N004, which was dosed to one group of 12 male CD1 mice as a single intravenous, 5.925 mg/kg doses as a 5 mL/kg bolus of a 1.19 mg/mL solution. […] Blood samples were taken from two animals per time-point, via cardiac puncture under terminal anaesthesia, at 0.08, 0.5, 1, 2 and 4 hours post-dose, and transferred to EDTA tubes for plasma generation. Plasma samples were immediately frozen at −20 C. For analysis, samples were thawed rapidly and 50 μL aliquots were treated with 3 volumes of extraction solvent (2:9:9 mixture of 10 mM ammonium bicarbonate, pH 8, acetonitrile and methanol, containing an analytical internal standard). Precipitated proteins were removed by centrifugation and the supernatant was analysed by LC-MS/MS. Quantification of the samples was by reference to a calibration line prepared in control mouse plasma. Pharmacokinetic parameters were determined by non-compartmental analysis using the software package PK Solutions 2.0 from Summit Research Services.

MT1-MMP hemopexin domain [2] = molecular target: T1, MT1-MMP hemopexin domain (Homo sapiens, UniProt P50281); assay: Direct binding fluorescence polarisation (FP) assay
T1 construct: residues Cys319-Gly511 from the human gene; His6 (N); made in house; host or cells: HEK293 (transient), pEXPR-IBA42 vector
Description: Direct Binding Fluorescence Polarisation or Anisotropy Assays are performed by titrating a constant concentration of fluorescent tracer (here, the fluoresceinated bicyclic peptide to be studied) with its binding partner (here, the MT1-MMP hemopexin domain). As the concentration of binding partner increases during the titration, the polarisation signal changes in proportion to the fraction of bound and unbound material. This allows determination of […] (Kd) quantitatively. Assay data can be fit using standard ligand binding equations.
The titrant (binding partner) concentration is varied from 0.1 nM up to typically 5 μM. The range is chosen such that the maximum change in fluorescent polarisation can be observed. Buffers employed are phosphate buffered saline in the presence of 0.01% Tween. Experiments were run in black 384 well low-bind/low volume plates (Corning 3820), and the fluorescent polarisation signal was measured using a BMG Pherastar FS plate reader.
Fluorescent tracers referred to in the text are bicyclic peptides that have been fluoresceinated using 5,6-carboxyfluorescein. Fluoresceination may be performed on the N-terminal amino group of the peptide, which is separated from the bicycle core sequence by a sarcosine spacer (usually Sar5). This can be done during Fmoc solid phase synthesis or post-synthetically (after cyclisation with TBMB and purification) if the N-terminal amino group is unique to the peptide. Fluoresceination can also be performed on the C-terminus, usually on a Lysine introduced as the first C-terminal residue, which is then separated from the bicycle core sequence by a sarcosine spacer (usually Sar6). Thus, N-terminal tracers can have a molecular format described as Fluo-Gly-Sar5-A(BicycleCoreSequence), and (BicycleCoreSequence)-A-Sar6-K(Fluo) for a C-terminally fluoresceinated construct. Fluorescent tracers used in the Examples are A-(17-69)-A-Sar6-K(Fluo), A-(17-69-07)-A-Sar6-K(Fluo), and A-(17-69-12)-A-Sar6-K(Fluo). Due to the acidic nature of the 17-69 fluorescent peptides, they were typically prepared as concentrated DMSO stocks, from which dilution were prepared in 100 mM Tris pH 8 buffer.

MT1-MMP hemopexin domain [3] = molecular target: T1, MT1-MMP hemopexin domain; assay: Competition assay using fluorescence polarisation; format: binding; settings: for Kd: read-out: Kd
Text: Here, a pre-formed complex of PEX with the fluorescent PEX-binding tracer is titrated with free, non-fluoresceinated bicyclic peptide. Since all 17-69-based peptides are expected to bind at the same site, the titrant will displace the fluorescent tracer from PEX. Dissociation of the complex can be measured quantitatively, and the Kd of the competitor (titrant) to the target protein determined. The advantage of the competition method is that the affinities of non-fluoresceinated bicyclic peptides can be determined accurately and rapidly.
Subsequently, the non-fluorescent competitor bicyclic peptide (usually just the bicycle core sequence) is titrated, such that it displaces the fluorescent tracer from the target protein. The displacement of the tracer is measured and associated with a drop in fluorescence polarisation. The drop in fluorescence polarisation is proportional to the fraction of target protein bound with the non-fluorescent titrant, and thus is a measure of the affinity of titrant to target protein.
The raw data is fit to the analytical solution of the cubic equation that describes the equilibria between fluorescent tracer, titrant, and binding protein. The fit requires the value of the affinity of fluorescent tracer to the target protein, which can be determined separately by direct binding FP experiments (see previous section).

[4] = Table 2, FP method Direct Binding, read-out: Kd

Compound `CC[C@H](C)[C@@H]1NC(=O)[C@H](CC(=O)O)NC(=O)[C@H](Cc2ccc(O)cc2)NC(=O)[C@H](Cc2ccccc2)NC(=O)[C@H](CC(=O)O)NC(=O)[C@H](CCC(=O)O)NC(=O)[C@@H]2CSCc3cc(cc(c3)CSC[C@H](NC(C)=O)C(=O)N[C@@H](Cc3ccc(O)cc3)C(=O)N[C@@H](CC(N)=O)C(=O)N[C@@H](CCC(=O)O)C(=O)N[C@@H](Cc3ccccc3)C(=O)NCC(=O)N2)CSC[C@@H](C(N)=O)NC1=O` [17-69-07-N004, Ac-(17-69-07) (wildtype)] has an AUC(0-inf) [1] of 4770 ng·h/mL, an AUC(0-t) [1] of 4770 ng·h/mL and a Cmax [1] of 15800 ng/mL. For the same compound, the Tmax [1] was 5 min, the clearance ([1]; read-out: Clearance based on AUC 0-∞) was 20.7 mL/min/kg and the half-life ([1]; read-out: Elimination Half-life) was 14 min. The Vd ([1]; read-out: Volume of Distribution based on AUC 0-∞) was 0.4 L/kg.

Work on `CC[C@H](C)[C@@H]1NC(=O)[C@H](CC(=O)O)NC(=O)[C@H](Cc2ccc(O)cc2)NC(=O)[C@H](Cc2ccccc2)NC(=O)[C@H](CC(=O)O)NC(=O)[C@H](CCC(=O)O)NC(=O)[C@@H]2CSCc3cc(cc(c3)CSC[C@@H](C(=O)N[C@@H](C)C(=O)N(C)CC(=O)N(C)CC(=O)N(C)CC(=O)N(C)CC(=O)N(C)CC(=O)N(C)CC(=O)N[C@@H](CCCCNC(=O)c3ccc4c(c3)C(=O)OC43c4ccc(O)cc4Oc4cc(O)ccc43)C(N)=O)NC1=O)CSC[C@H](NC(=O)[C@H](C)N)C(=O)N[C@@H](Cc1ccc(O)cc1)C(=O)N[C@@H](CC(N)=O)C(=O)N[C@@H](CCC(=O)O)C(=O)N[C@@H](Cc1ccccc1)C(=O)NCC(=O)N2` [17-69-07-N040, A-(17-69-07)-A-Sar6-K(Fl)] (H-ACYNEFGCEDFYDICA[Sar][Sar][Sar][Sar][Sar][Sar]K(5FAM)-NH2; linker 2-8-15 via TBMB) yielded a Kd (MT1-MMP hemopexin domain [2]; [4]) of 0.52 nM.

For `CC(=O)NCC(=O)N(C)CC(=O)N(C)CC(=O)N(C)CC(=O)N(C)CC(=O)N(C)CC(=O)N(C)CC(=O)N(C)CC(=O)N(C)CC(=O)N(C)CC(=O)N(C)CC(=O)N[C@@H](C)C(=O)N[C@H]1CSCc2cc3cc(c2)CSC[C@H](NC(=O)[C@@H](C)NC(=O)[C@H](Cc2cccc4ccccc24)NC(=O)[C@H](CCC(=O)O)NC(=O)[C@H](CC(N)=O)NC(=O)[C@@H](C)NC1=O)C(=O)N[C@@H](CCC(=O)O)C(=O)N[C@@H](CC(=O)O)C(=O)N[C@@H](Cc1ccccc1)C(=O)N[C@@H](Cc1ccc(Br)cc1)C(=O)N[C@@H](CC(=O)O)C(=O)N[C@@H](C(C)(C)C)C(=O)N[C@H](C(N)=O)CSC3` [17-69-07-N255, Ac-G-Sar10-A-(17-69-07) D-Ala1 1Nal4 D-Ala5 4BrPhe9 tBuGly11] (Ac-G[Sar][Sar][Sar][Sar][Sar][Sar][Sar][Sar][Sar][Sar]AC[dA]NE[1Nal][dA]CEDF[Phe(4-Br)]D[Tle]C-NH2; linker 13-19-26 via TBMB), the “potency / activity toward MT1-MMP, in words” value (MT1-MMP hemopexin domain [3]) was “potency which is superior to wildtype” and the Kd (MT1-MMP hemopexin domain [3]; Table 11, G-Sar10-A addition) was 0.3 nM.

With `C[C@H](NC(=O)CN(C)C(=O)CN(C)C(=O)CN(C)C(=O)CN(C)C(=O)CN(C)C(=O)CN(C)C(=O)CN(C)C(=O)CN(C)C(=O)CN(C)C(=O)CN(C)C(=O)CCNC(=O)c1ccc2c(c1)C(=O)OC21c2ccc(O)cc2Oc2cc(O)ccc21)C(=O)N[C@H]1CSCc2cc3cc(c2)CSC[C@H](NC(=O)[C@@H](C)NC(=O)[C@H](Cc2cccc4ccccc24)NC(=O)[C@H](CCC(=O)O)NC(=O)[C@H](CC(N)=O)NC(=O)[C@@H](C)NC1=O)C(=O)N[C@@H](CCC(=O)O)C(=O)N[C@@H](CC(=O)O)C(=O)N[C@@H](Cc1ccccc1)C(=O)N[C@@H](Cc1ccc(O)cc1)C(=O)N[C@@H](CC(=O)O)C(=O)N[C@@H](C(C)(C)C)C(=O)N[C@H](C(N)=O)CSC3` [17-69-07-N258, Fluorescein-(bAla)-Sar10-A-(17-69-07) D-Ala1 1Nal4 D-Ala5 tBuGly11] ({5FAM-βAla}-[Sar][Sar][Sar][Sar][Sar][Sar][Sar][Sar][Sar][Sar]AC[dA]NE[1Nal][dA]CEDFYD[Tle]C-NH2; linker 12-18-25 via TBMB) the Kd (MT1-MMP hemopexin domain [2]; Table 14, fluoresceinated derivative, read-out: V1T1-MMP (=MMP-14) (Kd, in nM)) was 2.2 nM.

With `CC[C@H](C)[C@@H]1NC(=O)[C@H](CC(=O)O)NC(=O)[C@H](Cc2ccc(O)cc2)NC(=O)[C@H](Cc2ccccc2)NC(=O)[C@H](CC(=O)O)NC(=O)[C@H](CCC(=O)O)NC(=O)[C@@H]2CSCc3cc(cc(c3)CSC[C@@H](C(=O)N[C@@H](C)C(N)=O)NC1=O)CSC[C@H](NC(=O)[C@H](C)N)C(=O)N[C@@H](CCSC)C(=O)N[C@@H](CC(N)=O)C(=O)N[C@@H](CCC(N)=O)C(=O)N[C@@H](Cc1ccccc1)C(=O)NCC(=O)N2` [17-69-12-N003, A-(17-69-12)-A] (H-ACMNQFGCEDFYDICA-NH2; linker 2-8-15 via TBMB) the Kd (MT1-MMP hemopexin domain [3]; Table 3, Competition, tracer A-(17-69-07)-A-Sar6-K(Fluorescein)) was 3.7 ± 2.52 nM.

Compound `CC[C@H](C)[C@@H]1NC(=O)[C@H](CC(=O)O)NC(=O)[C@H](Cc2ccc(O)cc2)NC(=O)[C@H](Cc2ccccc2)NC(=O)[C@H](CC(=O)O)NC(=O)[C@H](CCC(=O)O)NC(=O)[C@@H]2CSCc3cc(cc(c3)CSC[C@@H](C(=O)N[C@@H](C)C(=O)N(C)CC(=O)N(C)CC(=O)N(C)CC(=O)N(C)CC(=O)N(C)CC(=O)N(C)CC(=O)N[C@@H](CCCCNC(=O)c3ccc4c(c3)C(=O)OC43c4ccc(O)cc4Oc4cc(O)ccc43)C(N)=O)NC1=O)CSC[C@H](NC(=O)[C@H](C)N)C(=O)N[C@@H](CCSC)C(=O)N[C@@H](CC(N)=O)C(=O)N[C@@H](CCC(N)=O)C(=O)N[C@@H](Cc1ccccc1)C(=O)NCC(=O)N2` [17-69-12-N005, A-(17-69-12)-A-Sar6-K(Fl)] (H-ACMNQFGCEDFYDICA[Sar][Sar][Sar][Sar][Sar][Sar]K(5FAM)-NH2; linker 2-8-15 via TBMB) has a Kd (MT1-MMP hemopexin domain [2]; [4]) of 3.1 nM.

Work on `CC[C@H](C)[C@@H]1NC(=O)[C@H](CC(=O)O)NC(=O)[C@H](Cc2ccc(O)cc2)NC(=O)[C@H](Cc2ccccc2)NC(=O)[C@H](CC(=O)O)NC(=O)[C@H](CCC(=O)O)NC(=O)[C@@H]2CSCc3cc(cc(c3)CSC[C@H](NC(C)=O)C(=O)N[C@@H](Cc3ccc(O)cc3)C(=O)N[C@@H](CC(N)=O)C(=O)N[C@@H](CCC(=O)O)C(=O)N[C@@H](Cc3c[nH]c4ccccc34)C(=O)NCC(=O)N2)CSC[C@@H](C(N)=O)NC1=O` [17-69-44-N002, Ac-(17-69-07) Trp4] (Ac-CYNEWGCEDFYDIC-NH2; linker 1-7-14 via TBMB) yielded a Kd (MT1-MMP hemopexin domain [3]; Table 8, substitutions at position 4) of 0.75 ± 0.23 nM.

In the case of `CC[C@H](C)[C@@H]1NC(=O)[C@H](CC(=O)O)NC(=O)[C@H](Cc2ccc(O)cc2)NC(=O)[C@H](Cc2ccccc2)NC(=O)[C@H](CC(=O)O)NC(=O)[C@H](CCC(=O)O)NC(=O)[C@@H]2CSCc3cc(cc(c3)CSC[C@@H](C(=O)N[C@@H](C)C(=O)N(C)CC(=O)N(C)CC(=O)N(C)CC(=O)N(C)CC(=O)N(C)CC(=O)N(C)CC(=O)N[C@@H](CCCCNC(=O)c3ccc4c(c3)C(=O)OC43c4ccc(O)cc4Oc4cc(O)ccc43)C(N)=O)NC1=O)CSC[C@H](NC(=O)[C@H](C)N)C(=O)N[C@@H](CCCCN)C(=O)N[C@@H](CC(N)=O)C(=O)N[C@@H](CCCNC(=N)N)C(=O)NCC(=O)N[C@@H](Cc1ccccc1)C(=O)NCC(=O)N2` [Peptide 17-69-N004, A-(17-69)-A-Sar6-K(Fl)] (H-ACKNRGFGCEDFYDICA[Sar][Sar][Sar][Sar][Sar][Sar]K(5FAM)-NH2; linker 2-9-16 via TBMB), the Kd (MT1-MMP hemopexin domain [2]; [4]) is reported as 692 nM.
